Source: US20230226036A1, “ARIMOCLOMOL FOR TREATING GAUCHER DISEASE” (ORPHAZYME A/S, priority 2020, published 2023)
Entries after “also recorded” stand apart in the source; their conditions may differ.

Assays:
[1] = background statement; cited from earlier work
[2] = test system: serum chitotriosidase activity; experiment: Serum chitotriosidase activity, phase 2 trial in Gaucher disease type 1 or 3 (primary endpoint); assay type: in vivo, human; conditions: for Relative change in chitotriosidase activity from baseline versus placebo: 6 months, all dosage groups, significance not achieved (p=0.4), FIG. 2
Experimental: This is a placebo-controlled, randomised, double-blinded trial evaluating the response of 3 dose levels of arimoclomol on various pharmacodynamic (PD) biomarkers in blood and cerebrospinal fluid (CSF) as indicators of enhanced glucocerebrosidase (GBA) enzyme activity in GD1 and GD3.
(§1) Eligible GD1 and GD3 patients were randomised into 4 groups on a 1:1:1:1 basis to receive arimoclomol 300 mg/day, arimoclomol 600 mg/day, arimoclomol 1200 mg/day, or placebo treatment (3 times daily [t.i.d] dosing).
The primary efficacy endpoint of the trial was the percentage change in serum chitotriosidase activity (marker of macrophage activation) from baseline to 6 months, where baseline was defined as the mean value of the predose visits (Visit 1 and Visit 2).
The primary efficacy endpoint was analysed using an Analysis of Covariance (ANCOVA) model on the ITT population. The log of chitotriosidase activity was used in the analysis. The response variable for ANCOVA model was the log of chitotriosidase activity at 6 months, and the independent variables included IMP dose as randomized (300 mg/day, 600 mg/day, 1200 mg/day, and 0 mg/day [for placebo]) as a continuous variable, GD type, and log of baseline chitotriosidase. Supportive analysis was conducted using the same model but with the dose actually received at Visit 3 following possible dosing adjustment based on PK assessment at Visit 2.

[3] = test system: glycosylsphingosine (lyso-Gb1); experiment: Plasma glycosylsphingosine (lyso-Gb1), phase 2 trial in Gaucher disease; assay type: in vivo, human; conditions: after 6 months, statistical significance not achieved, FIG. 6
Experimental: as §1
(§2) The exploratory biomarker endpoints, as measured in the blood, included: • Change* in plasma glucosylsphingosine (GlcSph) levels at 6 months and every 6 months until trial end. • Change* in haemoglobin, ferritin, and platelet levels at 6 months and every 6 months until trial end. • Change* in GBA enzyme activity (leukocytes) at 6 months and every 6 months until trial end. • Change* in serum macrophage inflammatory protein-1b (MIP-1P; cytokine for bone involvement) at 6 months and every 6 months until trial end.
(§3) Secondary efficacy endpoints, including change in weight and height, change in liver size, change in spleen size, and change in biomarkers (blood and CSF) relative to baseline (where appropriate) were analysed using an ANCOVA model with treatment group (dose actually received at Visit 3 following possible dosing adjustment based on PK assessment at Visit 2, or placebo) and corresponding baseline value as covariate. For the biomarker analysis, appropriate data transformation was conducted before statistical analysis, if necessary.

liver size = experiment: Liver size by ultrasound, phase 2 trial in Gaucher disease type 1 or 3; assay type: in vivo, human; conditions: 6 months, 300/600/1200 mg/day, dose-trend effect p<0.05, FIG. 3
Experimental: as §1
(§4) The imaging efficacy endpoint consisted of the change in the size (centimetres) of the liver and spleen (assessed by ultrasound) at 6 months and bi-annually until trial end. Clinical GD severity endpoints (all patients): • Gaucher disease Type 1 Disease Severity Scoring System (GD1-DS3) • Modified Severity Scoring Tool (mSST)
as §3

[4] = Plasma exposure (AUC0-8) estimated by population PK modelling in GD1/GD3 patients; assay type: in vivo, human; conditions: 300, 600, 1200 mg/day t.i.d. oral (weight-adjusted), FIG. 1
Description: All patients underwent an arimoclomol single-dose (100-mg single dose for the 300-mg/day treatment group, 200-mg single dose for the arimoclomol 600-mg/day treatment group, 400-mg single dose for the arimoclomol 1200-mg/day treatment group, or corresponding dose per kg for paediatric patients prior to the effective date of this protocol. Single dose pharmacokinetics (PK) was done with corresponding dose per kg for all patients randomised after the effective date of this protocol) pharmacokinetic (PK) evaluation at Visit 2 following randomization to confirm the suitability (in terms of target investigational medicinal product (AUC0-8—area under the curve [AUC] from time 0 to 8 hours [AUC0-8]) of the selected doses in the trial. Following the single dose, blood samples for PK analysis were collected at predose, and 0.5, 1, 2, 4, and 8 hours postdose. […] The corresponding data was evaluated by an independent assessor to verify the AUC0-8. […]
In the event that the AUC was above the target, or an unexpected profile which could potentially impact the safety of the patient was obtained, and the patient required a dose reduction, the patient was dispensed a reduced dose of IMP (blinded) at Visit 3. […] Additional blood samples for quantitative population PK analysis of arimoclomol were collected predose and at 0.5 hours postdose at Visit 5, and predose and 1.5 hours postdose at Visit 7. […]

Gaucher's disease type 1 = experiment: Clinical GD1 severity score (GD1-DS3), phase 2 trial in Gaucher disease; assay type: in vivo, human; conditions: 6 months, statistical significance not achieved
Experimental: as §4, with “Eligible GD1 and GD3 patients were randomised into 4 groups on a 1:1:1:1 basis to receive arimoclomol 300 mg/day, arimoclomol 600 mg/day, arimoclomol 1200 mg/day, or placebo treatment (3 times daily [t.i.d] dosing). The” for “The”

spleen size = experiment: Spleen size by ultrasound, phase 2 trial in Gaucher disease type 1 or 3; assay type: in vivo, human; conditions: 6 months, 300/600/1200 mg/day, dose trend analysis p<0.10, FIG. 4
Experimental: as §1, §4, §3

haemoglobin = experiment: Haemoglobin in patients anaemic at baseline, phase 2 trial in Gaucher disease; assay type: in vivo, human; conditions: highest dose group (1200 mg/day), time-trend analysis p<0.05, FIG. 5
Experimental: as §1, §2, §3

## [O-][n+]1cccc(/C(Cl)=N/OC[C@H](O)CN2CCCCC2)c1 [arimoclomol, (+)-(R)—N-[2-hydroxy-3-(1-piperidinyl)-propoxy]-pyridine-1-oxide-3-carboximidoyl chloride]
[1]
  Blood-brain barrier passage: ability to cross the blood-brain barrier
[2]
  Relative change in chitotriosidase activity from baseline versus placebo: relative reduction in chitotriosidase activity from baseline
[2]; listed as Arimoclomol
  Relative change in chitotriosidase activity from baseline versus placebo: relative reduction in serum chitotriosidase activity
[2]; baseline to 6 months, 300/600/1200 mg/day vs. placebo
  Change in chitotriosidase activity across treatment groups: lower increase in arimoclomol groups vs. placebo
[3]
  Change from baseline of plasma glycosylsphingosine (lyso-Gb1): trend towards a dose-dependent increase
Liver size
  Liver size relative to placebo: dose-dependent effect; also recorded: Clinically meaningful dose-dependent reductions
[4]
  Plasma exposure (AUC): dose-dependent increase in plasma exposure
Gaucher's disease type 1
  Clinical GD1 severity score: directional dose-dependent reduction
Spleen size
  Spleen size relative to placebo: dose-dependent effect; also recorded: Clinically meaningful dose-dependent reductions
haemoglobin
  Haemoglobin over time: time-dependent increase in haemoglobin
